The record followed here is patent publication US20240262842A1, “SMALL MOLECULE INHIBITORS OF KRAS G12C MUTANT” (Merck Sharp & Dohme LLC, priority 2021, published 2024).

Like-named read-outs stand apart in the source and are kept apart here.

Assay [1] has as its target T1, interaction between GMPPNP-bound recombinant K-Ras4B G12C mutant protein and cRAF RAS-binding domain (cRAF-RBD) (Homo sapiens, UniProt P01116, G12C).
T1 construct: His-tag (N)
Description: Inhibitory activity on interaction between KRAS G12C and cRAF (Alpha technology). Particulars: Table 2-1. In a few lines: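 His-tagged K-Ras4B G12C (aa 1-169), GMPPNP-loaded, preincubated with compound 1 h at 25° C in pH 7.5 Tris buffer with MgCl2, TCEP, Tween 20. cRAF-RBD (aa 50-132) and Alpha reagents then added for 1.5 h; Alpha signal normalised to DMSO (0%) and GDP-bound KRAS (100%); IC50 from dose titration.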

Another assay relates to MIA PaCa-2 cells. Description: Growth inhibition activity on KRAS-G12C mutant cell line (CellTiter-Glo 3D). Particulars: MIA PaCa-2, 3-day culture with compound, Table 3-1. It counts as cell-based, human. In a few lines:
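MIA PaCa-2 cells in RPMI1640 with 10% FBS, U-bottom wells, cultured 1 day before compound (0.2% DMSO final), then 3 days at 37 °C, 5% CO2. Viability by CellTiter-Glo 3D luminescence; growth inhibition versus untreated wells gives IC50 (nM).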
(In ATP-based viability assays light output follows the ATP content of the culture.)

Setting [2] is: IC50, GMPPNP-bound KRAS G12C incubated with compound 25° C. 1 hour.
Where [3] appears, read: GMPPNP-bound KRAS G12C incubated with compound 25° C. 1 hour, read-out: IC50.

T1 sequence (P01116 with tags, fused parts or gaps isoform P01116-2 G12C): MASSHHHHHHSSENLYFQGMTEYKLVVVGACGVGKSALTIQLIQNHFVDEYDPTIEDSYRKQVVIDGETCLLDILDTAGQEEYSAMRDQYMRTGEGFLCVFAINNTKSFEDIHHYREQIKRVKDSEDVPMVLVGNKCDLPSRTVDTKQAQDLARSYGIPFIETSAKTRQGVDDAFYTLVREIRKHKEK

As to `CCN(CC)[C@H]1CC[C@H](NC/C=C/C(=O)Nc2c(F)cc(C(=O)c3cn4c5c(cccc35)-c3c(C(F)(F)F)cc5c(nc(C)n5C)c3N(C)CC4)cc2F)CC1` [Example 102, (E)-4-(((1r,4r)-4-(diethyl-amino)cyclohexyl)amino)-N-(2,6-difluoro-4-(8,9,11-trimethyl-6-(trifluoro-methyl)-8,11,12,13-tetra-hydroimidazo[4″,5″:5′,6′]-benzo[1′,2′:5,6][1,4]-diazocino[7,8,1-hi]indole-2-carbonyl)phenyl)but-2-enamide], the IC50 (commonly the concentration needed to halve the response being measured) in assay [1] (setting [2]) is 0.0112 µM; in the assay on MIA PaCa-2 cells (Homo sapiens, MIA PaCa-2, 72 h), 0.0105 µM.

Take `Cc1cc2c(nc(C)n2C)c2c1-c1cccc3c(C(=O)c4cc(F)c(NC(=O)/C=C/CNC(C)(C)C(=O)N(C)C)c(F)c4)cn(c13)CCN2C` [Example 103]: the IC50 in assay [1] (setting [2]) worked out at 0.0992 µM; in the assay with MIA PaCa-2 cells (Homo sapiens, MIA PaCa-2, 72 h), 0.303 µM.

As for `COc1cc2c(nc(C)n2C)c2c1-c1cccn3c(C(=O)c4cc(F)c(NC(=O)/C=C/CNC5CCCCC5)c(F)c4)cc(c13)CCN2C` [Example 104, (E)-4-(cyclohexylamino)-N-(2,6-difluoro-4-(7-methoxy-9,10,12-trimeth-yl-9,12,13,14-tetrahydro-imidazo[4″,5″:5′,6′]benzo-[1′,2′:2,3]azocino[4,5,6-hi]indolizine-2-carbon-yl)phenyl)but-2-enamide], the IC50 amounted to 0.0412 µM in assay [1] (setting [3]) and 0.0155 µM with MIA PaCa-2 cells (Homo sapiens, MIA PaCa-2, 72 h).

`CC(=O)CC(C)(C)NC/C=C/C(=O)Nc1c(F)cc(C(=O)c2cn3c4c(cccc24)-c2c(C)cc4c(nc(C)n4C)c2N(C)CC3)cc1F` [Example 108]: the IC50 in assay [1] (setting [2]) came to 0.0542 µM; in the assay on MIA PaCa-2 cells (Homo sapiens, MIA PaCa-2, 72 h), 0.332 µM.

Turning to `CN1CCc2cc(C(=O)c3cc(F)c(NC(=O)/C=C/CNC4(CO)CCCC4)c(F)c3)n3cccc(c23)-c2c(C(F)(F)F)cc3c(ncn3C)c21` [Example 109, (E)-N-(4-(9,12-dimethyl-7-(trifluoromethyl)-9,12,13,14-tetrahydro-imidazo[4″,5″:5′,6′]benzo-[1′,2′:2,3]azocino[4,5,6-hi]indolizine-2-carbonyl)-2,6-difluorophenyl)-4-((1-(hydroxymethyl)cyclo-pentyl)amino)but-2-enamide], the IC50 in assay [1] (setting [3]) came to 0.0248 µM; in the assay on MIA PaCa-2 cells (Homo sapiens, MIA PaCa-2, 72 h), 0.0195 µM.

On to `CO[C@H]1CC[C@H](NC/C=C/C(=O)Nc2c(F)cc(C(=O)c3cc4c5c(cccn35)-c3c(C)cc5c(ncn5C)c3N(C)CC4)cc2F)CC1` [Example 110, (E)-N-(2,6-difluoro-4-(7,9,12-trimethyl-9,12,13,14-tetrahydro-imidazo[4″,5″:5′,6′]benzo-[1′,2′:2,3]azocino[4,5,6-hi]indolizine-2-carbon-yl)phenyl)-4-(((1r,4r)-4-methoxycyclohexyl)-amino)but-2-enamide], for which the IC50 came to 0.0357 µM in assay [1] (setting [3]) and 0.0558 µM in the assay on MIA PaCa-2 cells (Homo sapiens, MIA PaCa-2, 72 h).

Regarding `CCNC/C=C/C(=O)Nc1c(F)cc(C(=O)c2cc3c4c(cccn24)-c2c(C(F)(F)F)cc4c(ncn4C)c2N(C)CC3)cc1F` [Example 111, (E)-N-(4-(9,12-dimethyl-7-(trifluoromethyl)-9,12,13,14-tetrahydro-imidazo[4″,5″:5′,6′]benzo-[1′,2′:2,3]azocino[4,5,6-hi]indolizine-2-carbonyl)-2,6-difluorophenyl)-4-(ethylamino)but-2-enamide], the IC50 in assay [1] (setting [3]) was 0.0313 µM; in the assay on MIA PaCa-2 cells (Homo sapiens, MIA PaCa-2, 72 h), 0.00895 µM.

In the case of `CN1CCc2cc(C(=O)c3cc(F)c(NC(=O)/C=C/CNCC(C)(C)O)c(F)c3)n3cccc(c23)-c2c(C(F)(F)F)cc3c(ncn3C)c21` [Example 112, (E)-N-(4-(9,12-dimethyl-7-(trifluoromethyl)-9,12,13,14-tetrahydro-imidazo[4″,5″:5′,6′]benzo-[1′,2′:2,3]azocino[4,5,6-hi]indolizine-2-carbonyl)-2,6-difluorophenyl)-4-((2-hydroxy-2-methylpropyl)-amino)but-2-enamide], the IC50 in assay [1] (setting [3]) is 0.0292 µM; in the assay with MIA PaCa-2 cells (Homo sapiens, MIA PaCa-2, 72 h), 0.0101 µM.

Turning to `CN1CCc2cc(C(=O)c3cc(F)c(NC(=O)/C=C/CNCC(C)(C)CO)c(F)c3)n3cccc(c23)-c2c(C(F)(F)F)cc3c(ncn3C)c21` [Example 113, (E)-N-(4-(9,12-dimethyl-7-(trifluoromethyl)-9,12,13,14-tetrahydro-imidazo[4″,5″:5′,6′]benzo-[1′,2′:2,3]azocino[4,5,6-hi]indolizine-2-carbonyl)-2,6-difluorophenyl)-4-((3-hydroxy-2,2-dimethyl-propyl)amino)but-2-enamide], the IC50 turned out to be 0.0296 µM in assay [1] (setting [3]) and 0.0106 µM in the assay with MIA PaCa-2 cells (Homo sapiens, MIA PaCa-2, 72 h).

As for `Cc1cc2c(nc(C)n2C)c2c1-c1cccc3c(C(=O)c4cc(F)c(NC(=O)/C=C/CN5CCC[C@H]5CO)c(F)c4)cn(c13)CCN2C` [Example 114, (S,E)-N-(2,6-difluoro-4-(6,8,9,11-tetramethyl-8,11,12,13-tetrahydro-imidazo[4″,5″:5′,6′]benzo-[1′,2′:5,6][1,4]diazocino-[7,8,1-hi]indole-2-carbon-yl)phenyl)-4-(2-(hydroxy-methyl)pyrrolidin-1-yl)-but-2-enamide], the IC50 came to 0.0611 µM in assay [1] (setting [2]) and 0.0645 µM in the assay on MIA PaCa-2 cells (Homo sapiens, MIA PaCa-2, 72 h).

Turning to `Cc1cc2c(ncn2C)c2c1-c1cccn3c(C(=O)c4cc(F)c(NC(=O)/C=C/CNC5(C)CC5)c(F)c4)cc(c13)CCN2C` [Example 115, (E)-N-(2,6-difluoro-4-(7,9,12-trimethyl-9,12,13,14-tetrahydro-imidazo[4″,5″:5′,6′]benzo-[1′,2′:2,3]azocino[4,5,6-hi]indolizine-2-carbon-yl)phenyl)-4-((1-methyl-cyclopropyl)amino)but-2-enamide], the IC50 was determined as 0.0389 µM in assay [1] (setting [3]) and 0.0613 µM in the assay on MIA PaCa-2 cells (Homo sapiens, MIA PaCa-2, 72 h).

Turning to `Cc1cc2c(ncn2C)c2c1-c1cccn3c(C(=O)c4cc(F)c(NC(=O)/C=C/CNC5(C)CCOCC5)c(F)c4)cc(c13)CCN2C` [Example 116], the IC50 was found to be 0.0266 µM in assay [1] (setting [3]) and 0.0299 µM in the assay with MIA PaCa-2 cells (Homo sapiens, MIA PaCa-2, 72 h).

On to `COCc1nc2c3c(c(C(F)(F)F)cc2n1C)-c1cccn2c(C(=O)c4cc(F)c(NC(=O)/C=C/CN[C@H]5CCOC5)c(F)c4)cc(c12)CCO3` [Example 118, (S,E)-N-(2,6-difluoro-4-(10-(methoxymethyl)-9-methyl-7-(trifluorometh-yl)-13,14-dihydro-9H-imidazo[4″,5″:5′,6′]benzo-[1′,2′:2,3]oxocino[4,5,6-hi]indolizine-2-carbonyl)-phenyl)-4-((tetrahydro-furan-3-yl)amino)but-2-enamide], for which the IC50 in assay [1] (setting [3]) was 0.0126 µM; with MIA PaCa-2 cells (Homo sapiens, MIA PaCa-2, 72 h) it was 0.0042 µM.

Take `Cc1cc2c(nc(C)n2C)c2c1-c1cccc3c(C(=O)c4cc(F)c(NC(=O)/C=C/CNC56CCC(CC5)OC6)c(F)c4)cn(c13)CCN2C` [Example 119, (E)-4-((2-oxabicyclo-[2.2.2]octan-4-yl)amino)-N-(2,6-difluoro-4-(6,8,9,11-tetramethyl-8,11,12,13-tetrahydro-imidazo[4″,5″:5′,6′]benzo-[1′,2′:5,6][1,4]diazocino-[7,8,1-hi]indole-2-carbon-yl)phenyl)but-2-enamide]: the IC50 in assay [1] (setting [2]) amounted to 0.0169 µM; in the assay with MIA PaCa-2 cells, 0.00939 µM.

As for `Cn1cnc2c3c(c(C(F)(F)F)cc21)-c1cccn2c(C(=O)c4cc(F)c(NC(=O)C=CCNC5CCOC5)c(F)c4)cc(c12)CCO3` [Example 120, (S,E)-N-(2,6-difluoro-4-(9-methyl-7-(trifluoromethyl)-13,14-dihydro-9H-imidazo[4″,5″:5′,6′]benzo[1′,2′:2,3]oxocino[4,5,6-bi]indolizine-2-carbonyl)phenyl)-4-((tetrahydrofuran-3-yl)amino)but-2-enamide], the IC50 in assay [1] (setting [3]) turned out to be 0.00559 µM; in the assay on MIA PaCa-2 cells (Homo sapiens, MIA PaCa-2, 72 h), 0.00652 µM.

Take `COc1cc2c(nc(C)n2C)c2c1-c1cccn3c(C(=O)c4cc(F)c(NC(=O)/C=C/CNC56CCC(CC5)OC6)c(F)c4)cc(c13)CCN2C` [Example 121]: the IC50 in assay [1] (setting [3]) is 0.023 µM; in the assay with MIA PaCa-2 cells (Homo sapiens, MIA PaCa-2, 72 h) it was 0.0264 µM.

Turning to `Cc1cc2c(nc(C)n2C)c2c1-c1cccc3c(C(=O)c4cc(F)c(NC(=O)/C=C/CN5CCC[C@H]5C(C)(C)O)c(F)c4)cn(c13)CCN2C` [Example 122, (S,E)-N-(2,6-difluoro-4-(6,8,9,11-tetramethyl-8,11,12,13-tetrahydro-imidazo[4″,5″:5′,6′]benzo-[1′,2′:5,6][1,4]diazocino-[7,8,1-hi]indole-2-carbon-yl)phenyl)-4-(2-(2-hydroxypropan-2-yl)-pyrrolidin-1-yl)but-2-enamide], the IC50 in assay [1] (setting [2]) is 0.0541 µM; in the assay with MIA PaCa-2 cells (Homo sapiens, MIA PaCa-2, 72 h) it was 0.0882 µM.

Regarding `Cc1cc2c(nc(C)n2C)c2c1-c1cccc3c(C(=O)c4cc(F)c(NC(=O)/C=C/CNC5CCOC5(C)C)c(F)c4)cn(c13)CCN2C` (centres unmarked) [Example 123, (E)-N-(2,6-difluoro-4-(6,8,9,11-tetramethyl-8,11,12,13-tetrahydro-imidazo[4″,5″:5′,6′]benzo-[1′,2′:5,6][1,4]diazocino-[7,8,1-hi]indole-2-carbon-yl)phenyl)-4-((2,2-dimeth-yltetrahydrofuran-3-yl)-amino)but-2-enamide], the IC50 in assay [1] (setting [2]) worked out at 0.0418 µM; with MIA PaCa-2 cells (Homo sapiens, MIA PaCa-2, 72 h), 0.035 µM.

Take `Cc1cc2c(nc(C)n2C)c2c1-c1cccc3c(C(=O)c4cc(F)c(NC(=O)/C=C/CNC5COC(C)(C)C5)c(F)c4)cn(c13)CCN2C` (centres unmarked) [Example 124, (E)-N-(2,6-difluoro-4-(6,8,9,11-tetramethyl-8,11,12,13-tetrahydro-imidazo[4″,5″:5′,6′]benzo-[1′,2′:5,6][1,4]diazocino-[7,8,1-hi]indole-2-carbon-yl)phenyl)-4-((5,5-dimeth-yltetrabydrofuran-3-yl)-amino)but-2-enamide]: the IC50 in assay [1] (setting [2]) came out at 0.013 µM; in the assay on MIA PaCa-2 cells (Homo sapiens, MIA PaCa-2, 72 h), 0.0137 µM.
